These results are taken from patent US20070259966A1, “Coadministration of Radiation, Efaproxiral Sodium, and Supplemental Oxygen for the Treatment of Cancer” (ALLOS THERAPEUTICS, INC., priority 2004, published 2007).

The target of one series is T1, hemoglobin (Homo sapiens, UniProt P68871+P69905).
T1 construct: endogenous in cells; host or cells: red blood cells of treated patients (in vivo)
Description: Predicted p50 shift from RBC concentration. It counts as in vivo. Conditions: at RBC concentration >483 μg/ml. On the procedure: Sometimes, efaproxiral sodium is represented by the name 2-[4-[2-[(3,5-dimethylphenyl)amino]-2-oxoethyl]phenoxy]-2-methylpropanoic acid. In general efaproxiral sodium is administered as a physiologically acceptable salt, such as the monosodium salt; that is, X+ is Na+. Efaproxiral sodium induces allosteric modification of hemoglobin, such that its binding affinity for oxygen is decreased, resulting in increased oxygen distribution to tissues by erythrocytes.
(§1) Plasma and red blood cell (RBC) drug concentration were assayed on 2 days during the course of efaproxiral sodium administration: WBRT day 1 (end-infusion) and on 1 single day between WBRT days 6 and 10 (pre-infusion and end-infusion assays). Regression analysis was used to explore the relationship between trough and peak concentrations and continuous clinical covariates (eg, age, serum albumin, hematocrit, serum creatinine, etc). […] A dose of efaproxiral sodium was considered predicatably therapeutic if it achieved a sufficient RBC concentration (>483 μg/ml), and corresponded to a predicted p50 shift of 10 mmHg.

The test system of series [1] is patients with brain metastases. Description: Quality of life: Spitzer Questionnaire (SQ). It counts as in vivo, human. The procedure: (§2) C. Quality of Life. Quality of life was determined by means of the Spitzer Questionnaire (SQ) and Karnofsky Performance Status (KPS) assessment. The tests were performed at baseline, at WBRT day 10, and at all routine follow-up visits. A sustained drop in the KPS score to less than 60 was defined as a significant drop. The 5 questions comprising the Spitzer Questionnaire were weighted evenly. For each evaluation with at least 3 out of 5 questions answered, an average score was computed for each patient. Questionnaires with fewer than 3 questions answered were treated as missing data. The protocol specified a sustained drop in the Spitzer Questionnaire score of 2 points constituted a significant drop.

Series [2] in a line: Plasma and red blood cell (RBC) drug concentration. It counts as in vivo, human. The procedure: as §1
Series [3] deals with patients with brain metastases. Description: Quality of life: Karnofsky Performance Status (KPS). It counts as in vivo, human. On the procedure:
as §2

For series [4], the system named is patients with brain metastases. Briefly: Safety / treatment-emergent adverse events in the controlled study. It counts as in vivo, human. On the procedure:
Depending upon an individual patient's resaturation time (time required to recover to a stable ≧90% SpO2 on room air) following efaproxiral sodium plus WBRT, supplemental oxygen use may be required for as little as 30 minutes to more than 4 hours. […] During this period of decreased oxygen saturation, patients require continuous SpO2 monitoring. If the desired SpO2 of ≧90% while breathing room air is not achieved, supplemental oxygen is to be continued and increased to a flow of 6-8 L/min, if necessary, until the SpO2 while breathing room air is stabilized at ≧90%.
Patients with brain metastases were administered efaproxiral sodium in a total dose of 0-100 mg/kg per day based on the dosing guidelines detailed above. In general, efaproxiral sodium is administered by intravenous infusion through a central venous access device over 30 minutes at a dose of 75 or 100 mg/kg daily with concurrent supplemental oxygen. Oxygen must be administered at 4 L/min via nasal cannula or facemask beginning 5 minutes prior to initiation of infusion, during infusion and WBRT, and for at least 15 minutes after completion of daily WBRT. Efaproxiral sodium is administered every day of a fractionated course of WBRT. Except when contraindicated, WBRT must be administered within 30 minutes of the end of the efaproxiral sodium infusion.
The patients were given the drug in one dose. Efaproxiral sodium was administered via central venous access with flow rate controlled by volumetric pump over a 30-45 minute interval with end-infusion no longer than 30 minutes prior to each radiation dose of a 10-day course of WBRT. Efaproxiral sodium was formulated as a sterile solution for injection and was supplied in single-use glass bottles containing 10 g efaproxiral sodium in 500 mL of 0.225% NaCl at a concentration of 20 mg/mL. Efaproxiral sodium was administered during the 10-day course of WBRT, for a maximum of 10 doses. A control group received radiation and supplemental oxygen only.
The majority of treatment-emergent adverse events were Grade 1 or 2 in severity, resolved spontaneously or within the duration of the study, and responded well to concomitant treatment with antiemetics for nausea/vomiting, nonsteroidal anti-inflammatory drugs for headache, supplemental oxygen for hypoxemia. […] Muscle weakness and dyspnea (reported in 3% of patients) were the most commonly reported Grade 3 adverse events in Control patients and both events were reported as a Grade 4 event in 1 patient each. The most commonly reported Grade 4 adverse event in both treatment and control groups was disease progression (reported in 6% of both groups).

T1 sequence (P69905 2-142 limits assumed): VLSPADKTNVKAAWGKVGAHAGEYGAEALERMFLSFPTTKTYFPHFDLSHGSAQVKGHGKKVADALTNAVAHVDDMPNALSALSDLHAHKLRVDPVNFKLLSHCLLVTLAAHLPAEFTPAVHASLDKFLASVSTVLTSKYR
T1 sequence (P68871 2-147 limits assumed): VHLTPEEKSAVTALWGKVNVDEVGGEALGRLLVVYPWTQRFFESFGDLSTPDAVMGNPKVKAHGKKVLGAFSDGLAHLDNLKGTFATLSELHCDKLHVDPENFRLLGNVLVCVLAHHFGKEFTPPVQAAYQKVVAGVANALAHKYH

Turning to `Cc1cc(C)cc(NC(=O)Cc2ccc(OC(C)(C)C(=O)O)cc2)c1` [efaproxiral sodium, 2-[4-(((3,5-dimethylanilino)carbonyl)methyl)phenoxy]-2-methylpropionic acid], the “predicted p50 shift” value at hemoglobin is 10 mmHg. In addition, the “patients with stable or improving SQ scores, (%)” value in series [1] (1 month) is reported as “(42) %”; in series [1] (3 months) it was “(23) %”; in series [1] (6 months) it was “(16) %”; in series [1] (12 months), “(9) %”. In series [1] (χ2=3.4675, p=0.0626), the “percentage of patients with stable or improving SQ scores over time versus Control” value was “trend toward a higher percentage”. The “drug accumulation in RBCs” value in series [2] (WBRT week 2 preinfusion concentrations) was “No clinically relevant drug accumulation”. The “concentrations in RBCs, higher body weight versus low weight patients” value in series [2] (at a given dose) is given as “higher”. For the same compound, the “concentrations in RBCs, breast primary versus NSCLC and other primary patients” value in series [2] (in vivo) is given as “higher”. The “change of concentrations in RBCs with dose” value in series [2] (patients dosed at 75 or 100 mg/kg) is recorded as “proportional increase”. Besides, the “patients with stable or improving KPS scores, (%)” value in series [3] (1 month) was “(44) %”; in series [3] (3 months), “(24) %”; in series [3] (6 months), “(18) %”; in series [3] (12 months) it was “(7) %”. Also, the “distribution of KPS score categories between treatment groups” value in series [3] (breast primary, 6 months and 1 year (p=0.0046 and p=0.0070)) is “statistically significant difference”. Besides, in series [3] (χ2=9.0096, p=0.0027), the “percentage of patients with stable or improving KPS scores over time versus Control” value was “highly statistically significant”. In addition, in series [4] (in vivo), the “Grade 4 hypoxemia” value is reported as “no Grade 4 hypoxemia was reported”. The “severity of the majority of treatment-emergent adverse events” value in series [4] (in vivo) is “Grade 1 or 2”. The “duration of supplemental oxygen required after completion of WBRT” value in series [4] (majority of doses, patients with brain metastases from breast cancer) is reported as “one hour or less”. Further, in series [4] (most commonly reported Grade 3 adverse event), the “Grade 3 hypoxemia, patients reporting” value came out at 11%. In addition, the “Grade 4 disease progression, patients reporting” value in series [4] (most commonly reported Grade 4 adverse event) came out at 6%.
